Where a name gives a salt, the structure may show the parent alone.

What is called IC50 is the concentration that gives 50% inhibition.

One experiment deals with MV-4-11 cells. The experiment can be described thus: MV-4-11 cell proliferation inhibition assay (CellTiter-Glo luminescent cell viability). The experiment is classed as cell-based. Particulars: Homo sapiens, MV4-11, 120 hours, CTG readout, 8 concentration points. How it is done:
MV-4-11 Cell Proliferation Inhibition Assay:
The effect of the compounds of the present invention on the proliferation of MV-4-11 cells was evaluated using a luminescent cell viability assay.
The experimental methods are summarized as follows:
The cell proliferation status of MV-4-11 was detected using the CellTilter-Glo (CTG) assay kit: the luminescence signal generated in the assay is proportional to the number of viable cells in the culture medium by using a unique, stable luciferase to detect viable cell metabolism indicator ATP.
CellTilter-Glo reagent (Promega, G7572) consists of CellTilter-Glo lyophilized powder and ellTilter-Glo buffer, which can be used to dissolve the lyophilized powder into the buffer.
MV-4-11 cells (ATCC #CRL-9591, purchased from Nanjing Kezhen, item number CBP60522) were cultured in IMDM complete medium (Thermofisher, 12440053) containing 10% FBS (GBICO, 10099-141) and 100 units/ml streptomycin mixture (Thermofisher, 15140122). when the cells coverage rearched 80-90% in the culture container, dilute and plant with 0.25% trypsin (including EDTA) (Thermofisher, 25200056) in a white 384-well plate (Thermofisher, 164610), 400 cells per well (36 μl […] complete medium), then 384-well plates were incubated overnight (18-20 hours) in a 37° C., % CO2 incubator.
Compounds were solubilized to 10 mM in 100% DMSO, then sequentially diluted in 4-fold with DMSO to a minimum concentration of […], and each concentration was diluted 50-fold with FBS-free IMDM medium. If the compound IC50 value is very low, the initial concentration of the compound can be lowered. 4 μl of the diluted IMDM compound was added to each well and mixed gently by centrifugation. The GI50 (50% Growth Inhibition) of the compounds was determined in this experiment, including the T0 group before the cell proliferation (including the T0 positive and T0 negative control groups), and the T5 group after 120 hours of cell proliferation (containing the T5 positive and T5 negative control groups).). T0 represents the number of cells before cell proliferation before compound addition, including positive control: the group with the addition of cells and 0.2% DMSO was used as the positive control. The group with medium alone was used as the negative control, T0 group before the addition of compound will be used for CTG test. […] Gently shake for 5 minutes to ensure sufficient cell lysis, leave for 10 minutes to stabilize the luminescence signal, and then read the luminescence signal with EnVision (Perkin Elmer).
The inhibition of MV-4-11 cell proliferation of the compounds was calculated by the following formula: […]
The IC50 value of the compound was calculated from the 8 concentration points by XLfit (ID Business Solutions Ltd., UK) software using the following formula: […]
(Cellular ATP, detected with luciferase, serves as a proxy for viable cell number.)

The target in experiment [1] is T1, Human recombinant full-length MNK1 protein (Homo sapiens, UniProt Q9BUB5).
T1 construct: Human recombinant full-length MNK1 protein; purchased Thermo PR9138A
The experiment can be described thus: MNK1 inhibitory activity assay (ADP-Glo in vitro kinase assay). It counts as biochemical. The conditions noted are these: 10 concentration points. On the technique in general: In ADP-Glo the light output rises with the ADP produced.

T1 sequence (Q9BUB5 whole entry): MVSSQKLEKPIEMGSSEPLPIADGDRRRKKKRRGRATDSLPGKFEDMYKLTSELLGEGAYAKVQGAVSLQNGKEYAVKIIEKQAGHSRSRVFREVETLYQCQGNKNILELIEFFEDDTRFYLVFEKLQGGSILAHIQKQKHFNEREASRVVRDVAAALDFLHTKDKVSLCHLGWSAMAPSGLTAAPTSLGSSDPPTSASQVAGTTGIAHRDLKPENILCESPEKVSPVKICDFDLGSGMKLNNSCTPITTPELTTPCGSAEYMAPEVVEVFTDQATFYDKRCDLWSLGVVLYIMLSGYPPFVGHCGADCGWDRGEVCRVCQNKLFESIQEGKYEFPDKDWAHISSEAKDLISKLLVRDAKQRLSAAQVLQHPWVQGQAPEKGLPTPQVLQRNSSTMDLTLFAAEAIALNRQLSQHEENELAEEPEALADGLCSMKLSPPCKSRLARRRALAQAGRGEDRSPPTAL

`COc1cc2[nH]ncc2cc1Nc1cc(NC(=O)C2CC2)ncn1` [Compound 4, 5-(6-Cyclopropionamidopyrimidin-4-ylamino)-6-methoxy-1H-indazole]: the figures for the IC50 (in the experiment with MV-4-11 cells; in experiment [1]) were 301 nM and 1.45 nM, respectively.

Take `COc1c(Nc2cc(NC(=O)C3CC3)ncn2)ccc2c1CNC2=O` [Compound 67, 5-((6-Cyclopropanamidopyrimidin-4-yl)amino)-4-methoxyisodihydroindole-1-one]: the IC50 with MV-4-11 cells worked out at 483 nM; in experiment [1], 2.7 nM.

`COc1c(Nc2cc(Nc3ccccn3)ncn2)ccc2c1CNC2=O` [Compound 68, 5-((6-(Pyridin-2-ylamino)pyrimidin-4-yl)amino)-4-methoxyisodihydroindol-1-one]: the IC50 in the experiment on MV-4-11 cells came out at 295 nM; in experiment [1] it was 8.2 nM.

Turning to `COc1c(Nc2cc(Nc3cnccn3)ncn2)ccc2c1CNC2=O` [Compound 84, 5-((6-(Pyrazin-2-ylamino)pyrimidin-4-yl)amino)-4-methoxyisodihydroindol-1-one formate], the IC50 with MV-4-11 cells was found to be 278 nM; in experiment [1], 5 nM.

The record behind these values is US20220289719A1, “HETEROCYCLIC COMPOUNDS AS MNK INHIBITORS” (NANJING INNOCARE PHARMA TECH CO., LTD., priority 2017, published 2022).
